{"source": "patent US20200297749A1", "about": "“Methods and Pharmaceutical Composition for Modulation Polarization and Activation of Macrophages” (priority 2015, published 2020)", "key": {"[1]": {"system": "PMA-treated THP-1 macrophages stimulated with lipopolysaccharide and ATP (LPS+ATP)", "test": "IL-1β secretion by LPS+ATP-stimulated PMA-treated THP-1 macrophages (ELISA)", "assay_type": "cell-based, Human", "conditions": "for IL-1β secretion: after stimulation with LPS+ATP; for IL-10 secretion: PMA-treated THP-1 macrophages, LPS+ATP, drug 100 μM during stimulation, FIG. 1a; for exacerbated IL-1β secretion of P2Y2-inhibited THP-1 macrophages: LPS+ATP stimulation, added 18 hours before", "procedure": "(§1) Human THP-1 cells were cultured in RPMI 1640 media, supplemented with 10% FBS. THP-1 cells were differentiated by treatment for 3 hours with 100 nM phorbol-12-myristate-13-acetate (PMA, Invivogen). After 2 days THP-1 cells were stimulated first 3 hours with ultrapure LPS from E. coli (10 ng/ml, LPS) and then stimulated for 6 hours with ATP (5 mM, Sigma). Supernatants were used for cytokine assays and cell lysates for western blot analysis. Kaempferol (100 μM, Sigma), OxATP (100 μM, Sigma), Suramine (100 μM, Sigma), or Bafilomycine A1 ([…], TOCRIS) were added during LPS+ATP stimulation, while, PP1 (20 μM, Sigma), PP2 (20 μM, Sigma). MnTBAP (10 μM, Sigma) and NAC (100 μM, Sigma) 18 hours before LPS+ATP stimulations. Commercially available ELISA kits for […] (Ebioscience), IL-10 (BD) or LDH (Roche) were used according to the manufacturers' instructions."}, "[2]": {"system": "PMA-differentiated THP-1 macrophages stimulated with LPS+ATP", "test": "Viability / LDH release of LPS+ATP-stimulated THP-1 macrophages", "assay_type": "cell-based, Human", "conditions": "in comparison with the control", "procedure": "as §1"}, "[3]": {"system": "LPS+ATP-stimulated PMA-treated THP-1 macrophages", "test": "Quantification of ROS production (H2DCFDA, MitoSOX)", "assay_type": "cell-based, Human", "conditions": "detectable with H2DCFDA or MitoSOX", "procedure": "Mitochondria-associated ROS levels were measured by staining cells with H2DCFDA at 5 μM for 1 hour or with MitoSOX at 0.25 μM for 10 minutes at 37° C. Cells were then washed twice with HBSS solution and suspended in cold HBSS solution containing 1% FBS for FACS analysis^25."}, "[4]": {"system": "LPS+ATP-stimulated PMA-treated THP-1 macrophages", "test": "Fragmentation of the mitochondrial network (TOM20, Mitotracker Green fluorescence microscopy)", "assay_type": "cell-based, Human", "conditions": "TOM20 or Mitotracker Green", "procedure": "For immunofluorescence, cells were fixed in 2% paraformaldehyde-PBS for 5 minutes, permeabilized in 0.3% Triton (Sigma) in PBS, and incubated with PBS-FBS 20% for 1 hour, as previously described^39. Mitochondrial fragmentation and actin polymerization were analysed respectively using Mitotracker® Green FM (20 nM, Invitrogen) and Alexa Fluor 488 Phalloidin. For immunohistochemistry, 4-μm sections were cut from the paraffin blocks of the paraformaldehyde fixed tissues from mice, Macaca fascicularis or humans. After paraffin removal, slides were subjected to antigen retrieval by microwave boiling in 1 mmol/l EDTA pH 9.0. Slides were incubated with anti-P2Y2 (Alomone), anti-NLRP3 (Abcam), anti-CD163 (BD laboratories), anti-gp120 (2G12), anti-CD40 (BD laboratories) or anti-CASP1 p10 (Santa Cruz) overnight after permeabilization in 0.3% Triton for 5 minutes and saturation in PBS-FBS 20% for 1 hour. […] Cells were analysed by fluorescent confocal microscopy on Leica SPE (using a 63× objective). […] Mice alveolar macrophages were dissociated from lung (using Lung Dissociation kit from Miltenyi Biotech) and analysed using anti-CD11b (APC-Cy7) (BD laboratories), anti-CD11c (PE-Cy7) (BioLegend), anti-CD40 (eFluo710) (BioLegend), anti-F4/80 (FITC) (ebioscience) and anti-GR-1 (PE) (ebioscience)."}, "NLRP3 inflammasome": {"system": "NLRP3 inflammasome", "test": "IL-1β maturation under P2Y2 inhibition", "assay_type": "cell-based", "conditions": "P2Y2i alone", "procedure": "(§2) Cells were washed twice with PBS and lysed in appropriated buffer (250 mM NaCl, 0.1% NP-40, 5 mM EDTA, 10 mM Na3VO4, 10 mM NaF, 5 mM DTT, 3 mM Na4P207, 1 mM EGTA, 10 mM Glycerol phosphate, 10 mM Tris-Hcl (pH=7.5) and the protease and phosphatase inhibitors (Roche)). 10-40 μg of protein extracts were run on 4-12% or 10% SDS-PAGE and transferred at 4° C. onto a nitrocellulose membrane (0.2 Micron). After incubation for 2 hours at room temperature with 5% nonfat milk or BSA (Bovine Serum Albumine) in Tris-buffered saline and 0.1% Tween 20 (TBS-Tween), membranes were incubated with primary antibody at 4° C. overnight. […] The primary antibodies against GFP (D5.1), PYK2 (5E2). PYK2Y402*, SRC (36D10), SRCY416*, AMPKα (F6), AMPKT172* (40H9) and LC3A/B were obtained from Cell Signaling. Primary antibodies against IL-1β, CASP1, ASC (TMS1), IRF5, PNX1, Actin and GAPDH were purchased from Abcam. The primary antibodies anti-CAp24 (42-50) and anti-gp120 (2G12) were from NIH (AIDS Research and Reference Reagent Program, Division of AIDS, NIAID). Antibody anti-NLRP3 was from Adipogen (Cryo-2), anti-P2Y2 was from Alomone, anti-ubiquitin (P4D1) was from Santa-Cruz, anti-TOM20 and anti-Flag were from Sigma. […]"}, "[5]": {"system": "M2 human monocyte derived macrophages (MDMs)", "test": "M1 polarization assays in M2 monocyte derived macrophages", "assay_type": "cell-based", "procedure": "M2 MDMs that express at 100% the differentiation marker CD11b and the scavenger receptor M2 marker CD163 were then seeded (0.5×10^6/ml in macrophage medium+10% FBS), let to be attached on the plates for 2 hours at 37° C. before treatments with interferon γ (IFNγ) (1 μg/0.5×10^6 MDMs), kaempferol (100 μM) or DMSO for control cells. MDMs and supernatants were harvest for flow cytometry and confocal microscopy analysis at 24 hours post-kaempferol treatments and for cytokines IL-10 ELISA analyses at 96 hours post-kaempferol treatments. Expressions of CD163 and IRF5 were respectively determined by flow cytometry and western blot. Release of IL-1β and IL-10 was determined as indicated above by ELISA."}, "NLRP3 [6]": {"system": "NLRP3", "test": "P2Y2-induced NLRP3 degradation in transfected 293T cells (western blot)", "assay_type": "cell-based", "conditions": "for NLRP3 degradation: pharmacological inhibition of SRC; for down regulation of NLRP3 by P2Y2: 293T cells co-expressing NLRP3 and GFP-P2Y2", "procedure": "Cells were washed twice with PBS and lysed in appropriated buffer (250 mM NaCl, 0.1% NP-40, 5 mM EDTA, 10 mM Na3VO4, 10 mM NaF, 5 mM DTT, 3 mM Na4P207, 1 mM EGTA, 10 mM Glycerol phosphate, 10 mM Tris-Hcl (pH=7.5) and the protease and phosphatase inhibitors (Roche)). 10-40 μg of protein extracts were run on 4-12% or 10% SDS-PAGE and transferred at 4° C. onto a nitrocellulose membrane (0.2 Micron). After incubation for 2 hours at room temperature with 5% nonfat milk or BSA (Bovine Serum Albumine) in Tris-buffered saline and 0.1% Tween 20 (TBS-Tween), membranes were incubated with primary antibody at 4° C. overnight. […] The primary antibodies against GFP (D5.1), PYK2 (5E2). PYK2Y402*, SRC (36D10), SRCY416*, AMPKα (F6), AMPKT172* (40H9) and LC3A/B were obtained from Cell Signaling. Primary antibodies against IL-1β, CASP1, ASC (TMS1), IRF5, PNX1, Actin and GAPDH were purchased from Abcam. The primary antibodies anti-CAp24 (42-50) and anti-gp120 (2G12) were from NIH (AIDS Research and Reference Reagent Program, Division of AIDS, NIAID). Antibody anti-NLRP3 was from Adipogen (Cryo-2), anti-P2Y2 was from Alomone, anti-ubiquitin (P4D1) was from Santa-Cruz, anti-TOM20 and anti-Flag were from Sigma. For immunoprecipitations, cell pellets were lysed 6 hours after infection or 24 hours after transfection in CHAPS buffer (50 mM Tris-HCl (pH=7.5), 0.50 M NaCl and 0.1% CHAPS) containing protease and phosphatase inhibitors. Anti-NLRP3 (Origene), anti-P2Y2 (Abcam) antibodies were incubated overnight at 4° C. with the cell lysates. The complexes were precipitated by incubation with Protein G Sepharose™ 4 Fast Flow (GE Healthcare). For anti-Flag immunoprecipitations, anti-Flag® M2 affinity Gel (Sigma) were incubated for overnight at 4° C. with the cell lysates. […] Western blots shown are representative of at least of three independent experiments."}, "HIV-1NL4-3": {"system": "HIV-1NL4-3", "test": "HIV-1 permissiveness of THP-1 monocytes (intracellular p24)", "assay_type": "cell-based", "conditions": "human monocytes THP-1", "procedure": "as §2"}, "NLRP3 [7]": {"system": "NLRP3", "test": "NLRP3 ubiquitinylation/degradation in HIV-1NL4-3-infected THP-1 monocytes", "assay_type": "cell-based, human", "conditions": "THP-1, HIV-1NL4-3 infection", "procedure": "as §2"}, "R5-tropic HIV-1BaL": {"system": "R5-tropic HIV-1BaL", "test": "HIV-1BaL replication in human MDMs (p24 release)", "assay_type": "cell-based"}}, "note": "Residues, ends and D or L forms follow the SMILES beside them. *: point of attachment. Cbz = O=C(OCc1ccccc1)*", "data": [{"smiles": "O=c1ccn([C@@H]2O[C@H](COP(=O)(O)OP(=O)(O)OP(=O)(O)OP(=O)(O)Oc3ccccc3)[C@@H](O)[C@H]2O)c(=O)[nH]1", "note": "[MRS2768]", "values": [{"measurement": "IL-1β secretion", "setting": "[1]", "value": "impaired"}]}, {"smiles": "Cc1ccc(C(=O)Nc2ccc(S(=O)(=O)O)c3cc(S(=O)(=O)O)cc(S(=O)(=O)O)c23)cc1NC(=O)c1cccc(NC(=O)Nc2cccc(C(=O)Nc3cc(C(=O)Nc4ccc(S(=O)(=O)O)c5cc(S(=O)(=O)O)cc(S(=O)(=O)O)c45)ccc3C)c2)c1", "note": "[suramin]", "values": [{"measurement": "IL-10 secretion", "setting": "[1]", "value": "increased"}]}, {"smiles": "O=C(O)c1ccc(/C2=C3\\C=CC(=N3)/C(c3ccc(C(=O)O)cc3)=c3/cc/c4[n]3[Mn]([Cl])[n]3c2ccc3/C(c2ccc(C(=O)O)cc2)=C2/C=CC(=N2)\\C=4c2ccc(C(=O)O)cc2)cc1", "note": "[MnTBAP]", "values": [{"measurement": "exacerbated IL-1β secretion of P2Y2-inhibited THP-1 macrophages", "setting": "[1]", "value": "blunted"}]}, {"smiles": "O=c1c(O)c(-c2ccc(O)cc2)oc2cc(O)cc(O)c12", "note": "[kaempferol]", "values": [{"measurement": "viability (cell death, pyroptosis)", "setting": "[2]", "value": "lost their viability"}, {"measurement": "LPS+ATP-induced ROS production", "setting": "[3]", "value": "increased"}, {"measurement": "fragmentation of the mitochondrial network", "setting": "[4]", "value": "caused fragmentation"}, {"measurement": "IL-10 secretion", "setting": "[1]", "value": "increased"}, {"measurement": "IL-1β maturation", "setting": "NLRP3 inflammasome", "value": "stimulation"}, {"measurement": "IL-10 secretion", "setting": "[5]; M2 human MDMs, kaempferol 100 μM, FIG. 1c", "value": "increased"}, {"measurement": "secretion of the M2 cytokine interleukin-10 (IL-10)", "setting": "[5]; MDMs, kaempferol 100 μM, 96 hours, FIG. 1e", "value": "reduced"}, {"measurement": "IL-1β secretion", "setting": "[5]; MDMs, kaempferol 100 μM, FIG. 1c", "value": "induction"}, {"measurement": "M1 polarization", "setting": "[5]; MDMs, kaempferol 100 μM, FIG. 1e", "value": "favoured the M1 polarization"}, {"measurement": "membrane expressions of the M2 markers such as CD163", "setting": "[5]; flow cytometry, 24 hours post-kaempferol", "value": "diminished"}, {"measurement": "expression of IFN regulatory factor 5 (IRF5)", "setting": "[5]; western blot", "value": "increased"}]}, {"smiles": "Cc1ccc(-c2nn(C(C)(C)C)c3ncnc(N)c23)cc1", "note": "[PP1]", "values": [{"measurement": "NLRP3 degradation", "setting": "NLRP3 [6]", "value": "impaired"}]}, {"smiles": "O=C1C(=Cc2ccc([N+](=O)[O-])cc2)CS(=O)(=O)CC1=Cc1ccc([N+](=O)[O-])cc1", "note": "[G5]", "values": [{"measurement": "down regulation of NLRP3 by P2Y2", "setting": "NLRP3 [6]", "value": "partially inhibited"}, {"measurement": "HIV-1 permissiveness (intracellular accumulation of p24)", "setting": "HIV-1NL4-3", "value": "enhanced"}, {"measurement": "ubiquitinylation/degradation of NLRP3", "setting": "NLRP3 [7]", "value": "increased"}]}, {"smiles": "O=c1nc2[nH]c(=O)[nH]c2c([O-])[nH]1.[Na+]", "note": "[MSU, monosodium urate crystals]", "values": [{"measurement": "p24 antigen release and replication of R5-tropic HIV-1BaL", "setting": "R5-tropic HIV-1BaL", "value": "reduced"}]}, {"smiles": "Nc1ncnc2c1ncn2[C@@H](C=O)O[C@@H](C=O)COP(=O)(O)OP(=O)(O)OP(=O)(O)O", "note": "[oxidized ATP]", "values": [{"measurement": "IL-1β secretion", "setting": "[1]", "value": "inhibited"}]}, {"smiles": "CC(=O)N[C@@H](CS)C(=O)O", "note": "[N-Acetyl Cysteine]", "values": [{"measurement": "exacerbated IL-1β secretion of P2Y2-inhibited THP-1 macrophages", "setting": "[1]", "value": "blunted"}]}, {"smiles": "CC(C)C[C@@H](C=O)NC(=O)[C@H](CC(C)C)NC(=O)[C@H](CC(C)C)NC(=O)OCc1ccccc1", "note": "[MG132] (Cbz-Leu-Leu-Leu-aldehyde)", "values": [{"measurement": "down regulation of NLRP3 by P2Y2", "setting": "NLRP3 [6]", "value": "fully suppressed"}]}, {"smiles": "CC(C)(C)n1nc(-c2ccc(Cl)cc2)c2c(N)ncnc21", "note": "[PP2]", "values": [{"measurement": "NLRP3 degradation", "setting": "NLRP3 [6]", "value": "impaired"}]}]}
